PMC5011342, “A high throughput drug screening assay to identify compounds that promote oligodendrocyte differentiation using acutely dissociated and purified oligodendrocyte precursor cells” (BMC Research Notes, 2016)
Structures can show the parent of a compound that is named as a salt. Where two headings read alike, the source gives them in different places.

Key:
[1] = tested on: acutely dissociated and purified rat OPCs; assay: Acute OL differentiation assay (MBP expression/cell, immunofluorescent image quantification); type: cell-based; conditions: sheet "All OLga data"
Procedure, shortened: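 Oligodendrocyte precursor cells were enriched from P6-P7 Sprague–Dawley rat brains by immunopanning (RAN-2 and GalC depletion, O4 selection), plated at 5000 cells/well in serum-free, mitogen-free differentiation media on PDL/laminin 96-well view plates, centrifuged at 200×g, and pre-incubated 1–2 h before test compounds were added in quadruplicate. On DIV4, cells were fixed, stained for MBP and DAPI, imaged automatically, and MBP expression per cell was quantified.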

[2] = tested on: expanded OPCs; assay: cells; conditions: for viability at 0.1 µM / viability at 1 µM / viability at 10 µM: Rattus norvegicus, 72 h
Procedure, shortened: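 Expanded OPCs seeded at 10,000 cells/well in differentiation media, then exposed to NCC library compounds at 10, 1 and 0.1 µM (quadruplicate, 0.1% DMSO) for three days. Viability read as alamarBlue fluorescence (560/590 nm) after 4 h at 37 °C; tunicamycin 5 ng/ml served as toxicity control.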

[3] = Rattus norvegicus, 0.4 uM test compound, relative to quetiapine, read-out: OL differentiation, 0.4 uM (% Quet)
[4] = Rattus norvegicus, 2 uM test compound, relative to quetiapine, read-out: OL differentiation, 2 uM (% Quet)
[5] = read-out: 0.1 µM (% DMSO), alamarBlue viability of expanded OPCs, compound at 0.1 µM, sheet All Tox data
[6] = read-out: 1 µM (% DMSO), alamarBlue viability of expanded OPCs, compound at 1 µM, sheet All Tox data
[7] = read-out: 10 µM (% DMSO), alamarBlue viability of expanded OPCs, compound at 10 µM, sheet All Tox data
[8] = Rattus norvegicus, test compound at 2 uM, NCC library screen, relative to quetiapine, read-out: 2 uM (% Quet)
[9] = Rattus norvegicus, test compound at 10 uM, NCC library screen, relative to quetiapine, read-out: 10 uM (% Quet)
[10] = read-out: 0.1 µM (% DMSO), alamarBlue viability, NCC library compound at 0.1 µM, sheet "All Tox data"
[11] = read-out: 1 µM (% DMSO), alamarBlue viability, NCC library compound at 1 µM, sheet "All Tox data"
[12] = read-out: 10 µM (% DMSO), alamarBlue viability, NCC library compound at 10 µM, sheet "All Tox data"
[13] = Rattus norvegicus, 10 uM test compound, relative to quetiapine, read-out: OL differentiation, 10 uM (% Quet)
[14] = Rattus norvegicus, test compound at 2 uM, MBP expression relative to quetiapine, NCC library screen, read-out: 2 uM (% Quet)
[15] = Rattus norvegicus, test compound at 10 uM, MBP expression relative to quetiapine, NCC library screen, read-out: 10 uM (% Quet)
[16] = alamarBlue viability of expanded OPCs, compound at 0.1 µM, relative to DMSO control
[17] = alamarBlue viability of expanded OPCs, compound at 1 µM, relative to DMSO control
[18] = alamarBlue viability of expanded OPCs, compound at 10 µM, relative to DMSO control

| SMILES | activation at 2 µM [1, 4] [%] | viability at 0.1 µM [2, 5] [%] | viability at 1 µM [2, 6] [%] | viability at 10 µM [2, 7] [%] | activation at 2 µM [1, 8] [%] | activation at 10 µM [1, 9] [%] | viability at 0.1 µM [2, 10] [%] | viability at 1 µM [2, 11] [%] | viability at 10 µM [2, 12] [%] | other results |
| --- | --- | --- | --- | --- | --- | --- | --- | --- | --- | --- |
| Cl.FC(F)(F)c1cccc(N2CCNCC2)c1 | – | – | – | – | – | – | – | – | – | OL differentiation, 2 uM (% Quet) ([1]; 2 uM test compound, relative to quetiapine): 23.8 % Quet; OL differentiation, 10 uM (% Quet) ([1]; 10 uM test compound, relative to quetiapine): 20.8 % Quet; 0.1 µM (% DMSO) ([2]; alamarBlue viability of expanded OPCs, compound at 0.1 µM, sheet All Tox data): 91.5 % DMSO; 1 µM (% DMSO) ([2]; alamarBlue viability of expanded OPCs, compound at 1 µM, sheet All Tox data): 101.9 % DMSO; 10 µM (% DMSO) ([2]; alamarBlue viability of expanded OPCs, compound at 10 µM, sheet All Tox data): 76.4 % DMSO |
| C[C@]12C/C(=C/O)C(=O)C[C@@H]1CC[C@@H]1[C@@H]2CC[C@@]2(C)[C@H]1CC[C@]2(C)O [Oxymetholone] | -31.7 | 82.4 | 79.2 | 48.9 | – | – | – | – | – | activation at 0.4 µM [1, 3]: -20% |
| CCN1CCN(c2cc3c(cc2F)c(=O)c(C(=O)O)cn3C2CC2)CC1 [Enrofloxacin] | – | – | – | – | -3.6 | 13.5 | 88.5 | 89 | 79.9 | – |
| COc1cc2c(cc1OC)[C@@]13CCN4CC5=CCO[C@H]6CC(=O)N2[C@H]1[C@H]6[C@H]5C[C@H]43 [Brucine] | – | – | – | – | 11 | – | 93 | 79.4 | 46.6 | activation at 0.4 µM ([1]; Rattus norvegicus, test compound at 0.4 uM, NCC library screen, relative to quetiapine, read-out: 0.4 uM (% Quet)): -2.6% |
| CCN(CC)CCOC(=O)c1ccc(N)cc1 [Procaine] | – | – | – | – | -5.2 | 7.7 | 121 | 145 | 146 | – |
| CCCc1c(OCCCCc2nnn[nH]2)ccc(C(C)=O)c1O [LY 171883] | -33.3 | 79.7 | 81.3 | 86.1 | – | – | – | – | – | activation at 10 µM [1, 13]: -5.4% |
| C[C@@H]1C[C@H]2[C@@H]3CCC4=CC(=O)C=C[C@]4(C)[C@@]3(F)[C@@H](O)C[C@]2(C)[C@@]1(O)C(=O)CO [Dexamethasone] | – | – | – | – | – | – | – | – | – | activation at 2 µM [1, 14]: 1.1%; activation at 10 µM [1, 15]: -24.5%; 0.1 µM (% DMSO) [2, 16]: 108.6 % DMSO; 1 µM (% DMSO) [2, 17]: 109.4 % DMSO; 10 µM (% DMSO) [2, 18]: 109.8 % DMSO |
| CC(COc1ccccc1)N(CCCl)Cc1ccccc1 (centres unmarked) [Phenoxybenzamine] | – | – | – | – | -11 | 35.4 | – | – | – | 0.1 µM (% DMSO) [2, 16]: 109.6 % DMSO; 1 µM (% DMSO) [2, 17]: 116.7 % DMSO; 10 µM (% DMSO) [2, 18]: 142.4 % DMSO |
| CC1=C(CC(=O)O)c2cc(F)ccc2/C1=C\c1ccc([S+](C)[O-])cc1 (centres unmarked) [Sulindac] | – | – | – | – | 0.6 | -11.2 | – | – | – | 0.1 µM (% DMSO) [2, 16]: 90.8 % DMSO; 1 µM (% DMSO) [2, 17]: 94.4 % DMSO; 10 µM (% DMSO) [2, 18]: 90.3 % DMSO |
| CN(C)c1nc(N(C)C)nc(N(C)C)n1 [Altretamine] | – | – | – | – | -1.1 | -13.9 | 94.2 | 87.4 | 85 | – |
| CCS(=O)(=O)CCn1c([N+](=O)[O-])cnc1C [Tinidazole] | – | – | – | – | -10.8 | 10.4 | 91.7 | 95.3 | 97.1 | – |
| Clc1ccccc1C(c1ccccc1)(c1ccccc1)n1ccnc1 [Clotrimazole] | 171 | 82.3 | 125 | 54.9 | – | – | – | – | – | activation at 0.4 µM [1, 3]: 43.9% |
| C#CCN(C)[C@H](C)Cc1ccccc1 [Selegiline] | 10.1 | 85.8 | 88.8 | 91.2 | 0.64 | 11.2 | – | – | – | activation at 10 µM [1, 13]: 19.7%; 0.1 µM (% DMSO) [2, 16]: 101.6 % DMSO; 1 µM (% DMSO) [2, 17]: 93.8 % DMSO; 10 µM (% DMSO) [2, 18]: 94.0 % DMSO |
| CCOC(=O)[C@H](CCc1ccccc1)N[C@@H](C)C(=O)N1CCC[C@H]1C(=O)O [Enalapril] | – | – | – | – | – | – | – | – | – | activation at 2 µM [1, 14]: 8.8%; activation at 10 µM [1, 15]: -8.9%; 0.1 µM (% DMSO) [2, 16]: 90.6 % DMSO; 1 µM (% DMSO) [2, 17]: 90.6 % DMSO; 10 µM (% DMSO) [2, 18]: 87.6 % DMSO |
| CCCc1nc2c(C)cc(-c3nc4ccccc4n3C)cc2n1Cc1ccc(-c2ccccc2C(=O)O)cc1 [Telmisartan] | – | – | – | – | -6.1 | -61.8 | 95.6 | 82.3 | 53.3 | – |
| O=C1CN2Cc3c(ccc(Cl)c3Cl)N=C2N1 [Anagrelide hydrochloride] | -7 | – | – | – | – | – | 93.1 | 90.4 | 81.2 | activation at 10 µM [1, 13]: -4.5% |
| CC(=O)O[C@H]1C[C@@H]2CC[C@@H]3[C@H](CC[C@@]4(C)[C@H]3C[C@H]([N+]3(C)CCCCC3)[C@@H]4OC(C)=O)[C@@]2(C)C[C@@H]1N1CCCCC1 [Vecuronium Bromide] | – | – | – | – | 13.2 | 17.7 | 86.3 | 87.7 | 78.4 | – |
| Cc1cccc(C)c1NC(=O)C1CCCCN1C (centres unmarked) [Mepivacaine] | – | – | – | – | -6.4 | -0.9 | 89.5 | 89.9 | 79.7 | – |
| COc1ccccc1OCC(O)CN1CCN(CC(=O)Nc2c(C)cccc2C)CC1 (centres unmarked) [Ranolazine] | 11.6 | 99.2 | 92.2 | 95.9 | – | – | – | – | – | activation at 10 µM [1, 13]: -35.3% |
| CCc1nn(CCCN2CCN(c3cccc(Cl)c3)CC2)c(=O)n1CCOc1ccccc1 [Nefazodone] | 0.4 | 99.6 | 111 | 42.8 | – | – | – | – | – | activation at 0.4 µM [1, 3]: -5.2% |
| C[C@]12CC[C@@H]3c4ccc(OS(=O)(=O)O)cc4CC[C@H]3[C@@H]1CCC2=O [Estrone sulfate] | – | – | – | – | – | – | – | – | – | 2 uM (% Quet) ([1]; test compound at 2 uM, NCC library screen, relative to quetiapine): 12.5 % Quet; 10 uM (% Quet) ([1]; test compound at 10 uM, NCC library screen, relative to quetiapine): 10.2 % Quet; 0.1 µM (% DMSO) ([2]; alamarBlue viability, NCC library compound at 0.1 µM, sheet "All Tox data"): 94.4 % DMSO; 1 µM (% DMSO) ([2]; alamarBlue viability, NCC library compound at 1 µM, sheet "All Tox data"): 83.6 % DMSO; 10 µM (% DMSO) ([2]; alamarBlue viability, NCC library compound at 10 µM, sheet "All Tox data"): 92.4 % DMSO |
| CN(C)CCOC(c1ccccc1)c1ccccc1 [Diphenhydramine] | 3.5 | 79.3 | 80 | 62.4 | – | – | – | – | – | activation at 10 µM [1, 13]: 30% |
| Cc1[nH]cnc1CN1CCc2c(c3ccccc3n2C)C1=O [Alosetron] | -24 | 106 | 91.2 | 96.3 | – | – | – | – | – | activation at 10 µM [1, 13]: -21.2% |
| C[C@@H]1O[C@@H](OC[C@H]2O[C@@H](Oc3c(-c4ccc(O)c(O)c4)oc4cc(O)cc(O)c4c3=O)[C@H](O)[C@@H](O)[C@@H]2O)[C@H](O)[C@H](O)[C@H]1O [Rutin] | 22.9 | 106 | 108 | 106 | – | – | – | – | – | activation at 10 µM [1, 13]: 21.3% |
| CC[C@H](C)C(=O)O[C@H]1C[C@@H](C)C=C2C=C[C@H](C)[C@H](CC[C@@H]3C[C@@H](O)CC(=O)O3)[C@H]21 [Lovastatin] | – | – | – | – | – | – | – | – | – | activation at 0.4 µM ([1]; Rattus norvegicus, test compound at 0.4 uM, MBP expression relative to quetiapine, NCC library screen, read-out: 0.4 uM (% Quet)): -70.9%; activation at 2 µM [1, 14]: -93.2%; 0.1 µM (% DMSO) [2, 16]: 147.6 % DMSO; 1 µM (% DMSO) [2, 17]: 99.7 % DMSO; 10 µM (% DMSO) [2, 18]: 46.0 % DMSO |
| CC(C)[C@]12O[C@H]1[C@@H]1O[C@]13[C@]1(O[C@H]1C[C@H]1C4=C(CC[C@@]13C)C(=O)OC4)[C@@H]2O [Triptolide] | – | 73.9 | 13.2 | 13.7 | – | – | – | – | – | activation at 0.08 µM ([1]; Rattus norvegicus, 0.08 uM test compound, relative to quetiapine, read-out: OL differentiation, 0.08 uM (% Quet)): 3.9%; activation at 0.4 µM [1, 3]: -23.3% |
| CCc1ccc(CCOc2ccc(CC3SC(=O)NC3=O)cc2)nc1 (centres unmarked) [Pioglitazone] | 13.3 | 96.9 | 120 | 164 | – | – | – | – | – | activation at 10 µM [1, 13]: 55.6% |
